According to patent US8012944B2, “Method for treating cancer using IAP antisense oligomer and chemotherapeutic agent” (Pharmascience Inc., priority 2003, dated 2011):
Oligonucleotides are written 5' to 3', each unit as a sugar letter and its base; * is a phosphorothioate linkage, no mark a phosphodiester; rarer units and linkages stand in square brackets, end groups in braces. Plain capitals give the bases only. d = 2'-deoxy (DNA); m = 2'-O-methyl

Assays:
XIAP mRNA [1] = assay: XIAP mRNA knock-down in H460 cells (real-time RT-PCR / TaqMan); assay type: cell-based, human
Method: RNA was extracted from cells lysed in RLT buffer (QIAGEN, Valencia, Calif.), and purified using QIAGEN RNeasy columns/kits. Real-time quantitative PCR was performed on a Perkin-Elmer ABI 7700 Prism PCR machine. RNA was reverse transcribed and amplified according to the TaqMan Universal PCR Master Mix protocol of PE Biosystems, using primers and probes designed to specifically recognize XIAP, HIAP1, survivin, or GAPDH. For human survivin, the forward primer was 5′-[…]-3′ (SEQ ID NO: 263), the reverse primer was 5′-GAAAGGAAAGCGCAACCG-3′ (SEQ ID NO: 264), and the probe was 5′-(FAM)[…](TAMRA)-3′ (SEQ ID NO: 265). For human HIAP1, the forward primer was 5′-[…]-3′ (SEQ ID NO: 266), the reverse primer was 5′-[…]-3′ (SEQ ID NO: 267), and the probe was 5′-(FAM)[…](TAMRA)-3′ (SEQ ID NO: 268). For human XIAP, the forward primer was 5′-[…]-3′ (SEQ ID NO: 269), the reverse primer was 5′-[…]-3′ (SEQ ID NO: 270), and the probe was 5′-(FAM)[…](TAMRA)-3′ (SEQ ID NO: 271). For human GAPDH, the forward primer was 5′-GAAGGTGAAGGTCGGAGTC-3′ (SEQ ID NO: 272), the reverse primer was 5′-GAAGATGGTGATGGGATTC-3′ (SEQ ID NO: 273), and the probe was 5′-(JOE)[…](TAMRA)-3′ (SEQ ID NO: 274). FAM is 6-carboxyfluoroscein, JOE is 6-carboxy-4,5-dichloro-2,7-dimethoxyfluoroscein, and TAMRA is 6-carboxy-N,N,N′,N′-tetramethylrhodamine. FAM and JOE are 5′ reporter dyes, while TAMRA is a 3′ quencher dye.
Relative quantification of gene expression was performed as described in the PE Biosystems manual using GAPDH as an internal standard. The comparative Ct (cycle threshold) method was used for relative quantitation of IAP mRNA levels compared to GAPDH mRNA levels. Briefly, real-time fluorescence measurements were taken at each PCR cycle and the threshold cycle (Ct) value for each sample was calculated by determining the point at which fluorescence exceeded a threshold limit of 30 times the baseline standard deviation. The average baseline value and the baseline SD are calculated starting from the third cycle baseline value and stopping at the baseline value three cycles before the signal starts to exponentially rise. The PCR primers and/or probes for the specific IAPs were designed to span at least one exon-intron boundary separated by 1 kb or more of genomic DNA, to reduce the possibility of amplifying and detecting genomic DNA contamination. The specificity of the signal, and possible contamination from DNA, were verified by treating some RNA samples with either DNase or RNase, prior to performing the reverse transcription and PCR reaction steps.
A portion of the 96 nucleobase oligomers depicted in Table 2 were rescreened for their ability to knock-down XIAP mRNA in NCI-H460 cells at […] post-transfection.
One day prior to transfection, H460 cells were plated in 6- or 96-well tissue culture plates. Phosphorothioate antisense oligonucleotides were delivered into cells with Lipofectamine 2000 (Life Technologies) in the form of liposome-oligonucleotide complexes. Following a 4.5 or 6 h transfection, the transfection medium was replaced with RPMI medium containing 10% FBS, and the cells incubated for another 24 or 48 h.
Total RNA from H460 cells treated with liposome-oligonucleotide complexes for 6 hours was immediately isolated using RNeasy mini spin columns and DNase treatment (QIAGEN, Valencia, Calif.). Specific XIAP mRNA was measured using a real-time quantitative RT-PCR method. […]

XIAP mRNA [2] = assay: as above; assay type: cell-based, human; settings: 2 × 2 MBO; NCI-H460 cells, 9 hours post-transfection; relative level (mock control 1.01)

Row | Substance | XIAP down-regulation H460 RNA (XIAP mRNA [1]) | XIAP RNA (XIAP mRNA [2])
1 | GTGTCTGATATATCTACAA (antisense; sugars from the 5' end m2 d15 m2, backbone and T or U not given here; further chemistry not fully specified) [Code H5] | 39% | 0.59
2 | AGTTCTCAAAAGATAGTCT (antisense; sugars from the 5' end m2 d15 m2, backbone and T or U not given here; further chemistry not fully specified) [Code G5] | 30% | 0.68
3 | ACATAGTGTTTTGCCACTT (antisense; sugars from the 5' end m2 d15 m2, backbone, methylation of C and T or U not given here; further chemistry not fully specified) [Code F12] | 74% | 0.26
4 | GGCCAGTTCTGAAAGGACT (antisense; sugars from the 5' end m2 d15 m2, backbone and T or U not given here; further chemistry not fully specified) [Code D6] | 60% | 0.39
5 | AAAATTCTAAGTACCTGCA (mA*mAdAdAdTdTdCdTdAdAdGdTdAdCdCdTdGmC*mA; antisense) [Code A1] | 48% | 0.46
6 | TGAGAGCCCTTTTTTTGTT (antisense; sugars from the 5' end m2 d15 m2, backbone and T or U not given here; further chemistry not fully specified) [Code D1] | 75% | 0.25
7 | TTACCACATCATTCAAGTC (antisense; sugars from the 5' end m2 d15 m2, backbone and T or U not given here; further chemistry not fully specified) [Code F2] | 34% | 0.64
8 | TGAATTAATTTTTAATATC (antisense; sugars from the 5' end m2 d15 m2, backbone and T or U not given here; further chemistry not fully specified) [Code H1] | 13% | 0.87
9 | AGCACATGGGACACTTGTC (antisense; sugars from the 5' end m2 d15 m2, backbone, methylation of C and T or U not given here; further chemistry not fully specified) [Code B11] | 63% | 0.39
10 | ATTCAATCAGGGTAATAAG (antisense; sugars from the 5' end m2 d15 m2, backbone, methylation of C and T or U not given here; further chemistry not fully specified) [Code E11] | 48% | 0.52
11 | CATCTTGGATACTGTCTTT (antisense; sugars from the 5' end m2 d15 m2, backbone, methylation of C and T or U not given here; further chemistry not fully specified) [Code D10] | 55% | 0.54
12 | CAGATATATATGTAACACT (antisense; sugars from the 5' end m2 d15 m2, backbone and T or U not given here; further chemistry not fully specified) [Code C1] | 66% | 0.3
13 | MAmUGACCACTTCCTCTATmGmG (ANGACCACNNCCNCNANGG; 2'-O-methyl modifications, chemistry not fully specified) [DE4 rev, reference compound] | – | 1.06
14 | GTTATAGGAGCTAACAAAT (antisense; sugars from the 5' end m2 d15 m2, backbone and T or U not given here; further chemistry not fully specified) [Code B3] | 34% | 0.64
15 | ATTGGTTCCAATGTGTTCT (antisense; chemistry not fully specified) [Code F1] | 81% | –
16 | GGAAGATTTGTTGAATTTG (antisense; sugars from the 5' end m2 d15 m2, backbone and T or U not given here; further chemistry not fully specified) [Code F7] | 69% | 0.3
17 | GAAACCACATTTAACAGTT (antisense; sugars from the 5' end m2 d15 m2, backbone, methylation of C and T or U not given here; further chemistry not fully specified) [Code H12] | 52% | 0.48
18 | AAGTCAGTTCACATCACAC (antisense; sugars from the 5' end m2 d15 m2, linkages s1 o16 s1 (s phosphorothioate, o phosphodiester), methylation of C not given here) [Code F11] | 64% | 0.36
19 | ATTATTTTCTTAATGTCCT (antisense; sugars from the 5' end m2 d15 m2, backbone, methylation of C and T or U not given here; further chemistry not fully specified) [Code A10] | 29% | 0.85
20 | TCTAGAGGGTGGCTCAGGA (antisense; sugars from the 5' end m2 d15 m2, backbone and T or U not given here; further chemistry not fully specified) [Code B1] | 66% | 0.34
21 | CTTTGATCTGGCTCAGACT (antisense; sugars from the 5' end m2 d15 m2, backbone, methylation of C and T or U not given here; further chemistry not fully specified) [Code G12] | 76% | 0.24
22 | ATATTTCTATCCATACAGA (antisense; sugars from the 5' end m2 d15 m2, backbone, methylation of C and T or U not given here; further chemistry not fully specified) [Code G10] | 56% | 0.49
23 | AAAGCATAAAATCCAGCTC (antisense; sugars from the 5' end m2 d15 m2, backbone, methylation of C and T or U not given here; further chemistry not fully specified) [Code C8] | 16% | 1.01
24 | AAGCAGTGCACTTGGTCAC (antisense; sugars from the 5' end m2 d15 m2, linkages s1 o16 s1 (s phosphorothioate, o phosphodiester), methylation of C not given here) [Code G6] | 69% | –
25 | ACTGGGCTTCCAATCAGTT (antisense; sugars from the 5' end m2 d15 m2, backbone, methylation of C and T or U not given here; further chemistry not fully specified) [Code H8] | – | 0.61
26 | ACAGGACTACCACTTGGAA (antisense; chemistry not fully specified) [Code B4] | 76% | –
27 | TATCCACTTATGACATAAA (antisense; chemistry not fully specified) [Code A3] | 27% | –
